# Results taken from PubChem BioAssay AID2060361 (Molecular Pharmacology Branch, DTP, NCI, 2025).
# Test system: 463943-066-T-J2-PDC tumor spheroids with HUVEC/MSC, viability
# Assay: Anticancer human tumor 463943-066-T-J2-PDC patient-derived colon adenocarcinoma cell line growth inhibition [TAK]
# Conditions: for IC50: curve of first compound; for viability, T/C: stronger effect = lower value
# Source text: Combinatorial screen of targeted agents with TAK-243 and ipatasertib in multi-cell type tumor spheroids
# A high-throughput screen of multi-cell type tumor spheroids was designed to identify active combinations of targeted small molecules and TAK-243 or ipatasertib. Complex spheroids include a stromal component modeled by human endothelial cells (HUVEC) and fibroblasts modeled by human mesenchymal stem cells (MSCs). The concentration ranges selected for each drug and investigational agent were based upon clinically achievable concentrations if the clinical Cmax of the agent was known.
# Compounds. The drugs and investigational agents: TAK-243 (785004), ipatasertib (767898), everolimus (733504), selumetinib (741078), bortezomib (756655), trametinib (758246), ixazomib (758254), vemurafenib (761431), dabrafenib (764134), sapanisertib (764658), alpelisib (765974), and copanlisib (816437), were obtained from the National Cancer Institute (NCI) Developmental Therapeutics Program Chemical Repository. The FDA-approved anticancer drug set is available from the NCI Developmental Therapeutics Program. […] The stock solutions were prepared in dimethyl sulfoxide (DMSO, Sigma-Aldrich, St. Louis, MO, cat. D2650) at 800-fold the tested concentration and stored at -70 degrees C prior to their use. All drugs and investigational agents were tested over a range starting from a high concentration at or near the clinical Cmax and decreasing in half-log increments. If the clinical Cmax for an agent had not been determined, the highest concentration tested was 10 microM.
# NCI60 Cell Culture. NCI60 cell lines were obtained from the NCI Developmental Therapeutics Program Tumor Repository. For each lot of cells, the Repository performed Applied Biosystems AmpFLSTR Identifiler testing with PCR amplification to confirm consistency with the published Identifier STR profile for each cell line. Cells were kept in continuous culture for no more than 20 passages. The optimal seeding densities for each of the cell lines at each time point assessed were determined prior to performing the concentration response studies. Briefly, the NCI60 human tumor lines were grown as monolayers in RPMI 1640 medium supplemented with 10% FBS and 2 mmol/L L-glutamine.
# An additional 2 lines were from the NCI60 cell line panel including melanomas, MALME-3M and SK-MEL-2. Pooled donor human umbilical vein endothelial cells (HUVEC, Lonza, cat. CC-2519) and human mesenchymal stem cells (hMSC, Lonza, cat. PT-2501) were purchased from Lonza (Walkersville, MD).
# PDMR cell lines were grown in complete medium (DC medium): Dulbecco's modified Eagle's medium (DMEM)/F12 supplemented with 5% fetal bovine serum (FBS), 2 mM L-glutamine, 100 U/mL penicillin and 100 µg/ml streptomycin, 0.4 µg/ml hydrocortisone, 10 ng/ml epidermal growth factor (EGF) recombinant human protein, 24 µg/mL adenine, and 0.1 mg/mL primocin. During culture from frozen stock vials, PDMR cells were cultured in the same medium containing 10 µM Y-27632 (see Table 3). The PDCs were cultured in complete DMEM/F12 media without 10 microM Y-27632 dihydrochloride for at least two passages prior to the screen. The pooled donor HUVEC and hMSC were cultured in endothelial cell growth medium 2 (PromoCell, Heidelberg, Germany, cat. C-22011) and mesenchymal stem cell growth medium 2 (PromoCell, cat. C-28009), respectively. For all experiments, HUVEC and hMSC were used at passages </=5.
# For the pre-screen, cell seeding densities were determined from a titration spanning the range from 5,000 to 313 cells per well. The mct-spheroids including 60% malignant cells, 25% HUVEC and 15% MSC dispensed as a mixture into U-bottom Ultra-Low Attachment 384-well plates (Corning, NY)
# High-throughput Drug Combination Screening.
# Prior to their inoculation into 384-well plates, malignant cells, HUVEC, and hMSC were removed from T flasks using TrypLE express (Thermo Fisher Scientific, cat. 12605036) and harvested by centrifugation for 5 min at 233 x g. […]
# [1] = second compound 0.3 µM, first compound 0.00949 µM
# [2] = second compound 0.3 µM, first compound 0.03 µM
# [3] = second compound 0.949 µM, first compound 0.00949 µM
# [4] = second compound 0.949 µM, first compound 0.03 µM
# [5] = second compound 3 µM, first compound 0.00949 µM
# [6] = second compound 3 µM, first compound 0.03 µM
# [7] = second compound 9.49 µM, first compound 0.00949 µM
# [8] = second compound 9.49 µM, first compound 0.03 µM
# [9] = second compound 30 µM, first compound 0.00949 µM
# [10] = second compound 30 µM, first compound 0.03 µM
# 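Also: spheroids exposed to drugs for seven days.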
# 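For viability, T/C in this document: 100% = DMSO vehicle control wells.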
smiles,measurement,setting,value
CC(=O)Nc1cccc(-n2c(=O)n(C3CC3)c(=O)c3c(Nc4ccc(I)cc4F)n(C)c(=O)c(C)c32)c1 + CC(C)NCC(C(=O)N1CCN(c2ncnc3c2C(C)CC3O)CC1)c1ccc(Cl)cc1,IC50,second compound 0.3 µM,> 30 nM
same,IC50,second compound 0.949 µM,> 30 nM
same,IC50,second compound 3 µM,> 30 nM
same,IC50,second compound 9.49 µM,> 30 nM
same,IC50,second compound 30 µM,> 30 nM
same,"viability, T/C","second compound 0.3 µM, first compound 94.9 pM",98.7%
same,"viability, T/C","second compound 0.3 µM, first compound 0.0003 µM",94.3%
same,"viability, T/C","second compound 0.3 µM, first compound 0.000949 µM",83.2%
same,"viability, T/C","second compound 0.3 µM, first compound 0.003 µM",82.2%
same,"viability, T/C",[1],71.5%
same,"viability, T/C",[2],65.2%
same,"viability, T/C","second compound 0.949 µM, first compound 94.9 pM",95.2%
same,"viability, T/C","second compound 0.949 µM, first compound 0.0003 µM",91.5%
same,"viability, T/C","second compound 0.949 µM, first compound 0.000949 µM",84.1%
same,"viability, T/C","second compound 0.949 µM, first compound 0.003 µM",83.9%
same,"viability, T/C",[3],77.2%
same,"viability, T/C",[4],61.2%
same,"viability, T/C","second compound 3 µM, first compound 94.9 pM",96.1%
same,"viability, T/C","second compound 3 µM, first compound 0.0003 µM",96.3%
same,"viability, T/C","second compound 3 µM, first compound 0.000949 µM",87.2%
same,"viability, T/C","second compound 3 µM, first compound 0.003 µM",84.4%
same,"viability, T/C",[5],72%
same,"viability, T/C",[6],57%
same,"viability, T/C","second compound 9.49 µM, first compound 94.9 pM",88%
same,"viability, T/C","second compound 9.49 µM, first compound 0.0003 µM",99%
same,"viability, T/C","second compound 9.49 µM, first compound 0.000949 µM",90.3%
same,"viability, T/C","second compound 9.49 µM, first compound 0.003 µM",79.5%
same,"viability, T/C",[7],72.3%
same,"viability, T/C",[8],62.7%
same,"viability, T/C","second compound 30 µM, first compound 94.9 pM",91.4%
same,"viability, T/C","second compound 30 µM, first compound 0.0003 µM",90.3%
same,"viability, T/C","second compound 30 µM, first compound 0.000949 µM",87.1%
same,"viability, T/C","second compound 30 µM, first compound 0.003 µM",80.6%
same,"viability, T/C",[9],69.1%
same,"viability, T/C",[10],53.6%
CC(C)CC(NC(=O)C(Cc1ccccc1)NC(=O)c1cnccn1)B(O)O (stereo not given) + CC(C)NCC(C(=O)N1CCN(c2ncnc3c2C(C)CC3O)CC1)c1ccc(Cl)cc1,IC50,second compound 0.3 µM,> 10 nM
same,IC50,second compound 0.949 µM,> 10 nM
same,IC50,second compound 3 µM,> 10 nM
same,IC50,second compound 9.49 µM,> 10 nM
same,IC50,second compound 30 µM,> 10 nM
same,"viability, T/C","second compound 0.3 µM, first compound 31.6 pM",98.3%
same,"viability, T/C","second compound 0.3 µM, first compound 0.0001 µM",99.2%
same,"viability, T/C","second compound 0.3 µM, first compound 0.000316 µM",92.3%
same,"viability, T/C","second compound 0.3 µM, first compound 0.001 µM",91.4%
same,"viability, T/C","second compound 0.3 µM, first compound 0.00316 µM",93.1%
same,"viability, T/C","second compound 0.3 µM, first compound 0.01 µM",84.1%
same,"viability, T/C","second compound 0.949 µM, first compound 31.6 pM",89.1%
same,"viability, T/C","second compound 0.949 µM, first compound 0.0001 µM",81.8%
same,"viability, T/C","second compound 0.949 µM, first compound 0.000316 µM",89.4%
same,"viability, T/C","second compound 0.949 µM, first compound 0.001 µM",84.3%
same,"viability, T/C","second compound 0.949 µM, first compound 0.00316 µM",85.2%
same,"viability, T/C","second compound 0.949 µM, first compound 0.01 µM",77.3%
same,"viability, T/C","second compound 3 µM, first compound 31.6 pM",90.5%
same,"viability, T/C","second compound 3 µM, first compound 0.0001 µM",96%
same,"viability, T/C","second compound 3 µM, first compound 0.000316 µM",97.3%
same,"viability, T/C","second compound 3 µM, first compound 0.001 µM",94.4%
same,"viability, T/C","second compound 3 µM, first compound 0.00316 µM",78.5%
same,"viability, T/C","second compound 3 µM, first compound 0.01 µM",81.8%
same,"viability, T/C","second compound 9.49 µM, first compound 31.6 pM",85.4%
same,"viability, T/C","second compound 9.49 µM, first compound 0.0001 µM",95.5%
same,"viability, T/C","second compound 9.49 µM, first compound 0.000316 µM",82.7%
same,"viability, T/C","second compound 9.49 µM, first compound 0.001 µM",88.9%
same,"viability, T/C","second compound 9.49 µM, first compound 0.00316 µM",82.7%
same,"viability, T/C","second compound 9.49 µM, first compound 0.01 µM",77%
same,"viability, T/C","second compound 30 µM, first compound 31.6 pM",88.2%
same,"viability, T/C","second compound 30 µM, first compound 0.0001 µM",85.3%
same,"viability, T/C","second compound 30 µM, first compound 0.000316 µM",91.4%
same,"viability, T/C","second compound 30 µM, first compound 0.001 µM",88.2%
same,"viability, T/C","second compound 30 µM, first compound 0.00316 µM",88.7%
same,"viability, T/C","second compound 30 µM, first compound 0.01 µM",70.2%
Cn1cnc2c(F)c(Nc3ccc(Br)cc3Cl)c(C(=O)NOCCO)cc21 + CC(C)NCC(C(=O)N1CCN(c2ncnc3c2C(C)CC3O)CC1)c1ccc(Cl)cc1,IC50,second compound 0.3 µM,> 3000 nM
same,IC50,second compound 0.949 µM,> 3000 nM
same,IC50,second compound 3 µM,> 3000 nM
same,IC50,second compound 9.49 µM,> 3000 nM
same,IC50,second compound 30 µM,> 3000 nM
same,"viability, T/C",[1],102%
same,"viability, T/C",[2],115%
same,"viability, T/C","second compound 0.3 µM, first compound 0.0949 µM",92.8%
same,"viability, T/C","second compound 0.3 µM, first compound 0.3 µM",78%
same,"viability, T/C","second compound 0.3 µM, first compound 0.949 µM",72.6%
same,"viability, T/C","second compound 0.3 µM, first compound 3 µM",54.6%
same,"viability, T/C",[3],101%
same,"viability, T/C",[4],105%
same,"viability, T/C","second compound 0.949 µM, first compound 0.0949 µM",77.6%
same,"viability, T/C","second compound 0.949 µM, first compound 0.3 µM",69.2%
same,"viability, T/C","second compound 0.949 µM, first compound 0.949 µM",63.9%
same,"viability, T/C","second compound 0.949 µM, first compound 3 µM",62.3%
same,"viability, T/C",[5],90.4%
same,"viability, T/C",[6],103%
same,"viability, T/C","second compound 3 µM, first compound 0.0949 µM",85.2%
same,"viability, T/C","second compound 3 µM, first compound 0.3 µM",76.2%
same,"viability, T/C","second compound 3 µM, first compound 0.949 µM",70.3%
same,"viability, T/C","second compound 3 µM, first compound 3 µM",58.4%
same,"viability, T/C",[7],102%
same,"viability, T/C",[8],94.6%
same,"viability, T/C","second compound 9.49 µM, first compound 0.0949 µM",88.5%
same,"viability, T/C","second compound 9.49 µM, first compound 0.3 µM",79.8%
same,"viability, T/C","second compound 9.49 µM, first compound 0.949 µM",70.2%
same,"viability, T/C","second compound 9.49 µM, first compound 3 µM",67.1%
same,"viability, T/C",[9],103%
same,"viability, T/C",[10],92.2%
same,"viability, T/C","second compound 30 µM, first compound 0.0949 µM",88.6%
same,"viability, T/C","second compound 30 µM, first compound 0.3 µM",71.7%
same,"viability, T/C","second compound 30 µM, first compound 0.949 µM",71.3%
same,"viability, T/C","second compound 30 µM, first compound 3 µM",60.1%
